Assay results reported in patent publication US9718828B2 (MERCK SHARP & DOHME CORP., priority 2011, dated 2017).
Structures can show the parent of a compound that is named as a salt. Where two headings read alike, the source gives them in different places.

Molecular target: Btk enzyme (His-Btk) (Homo sapiens (Human), UniProt Q06187)
Experiment: Btk enzyme activity, IMAP fluorescence polarization assay (Assay Method A)
[1] = read-out: EC50 Btk activity values - Assay Method A, IMAP-FP, 60 min pre-incubation, 5 μM ATP, class 100-1000 is given as ≧100 nM-<1 μM

Sequence of Btk enzyme (His-Btk) (Q06187 whole entry): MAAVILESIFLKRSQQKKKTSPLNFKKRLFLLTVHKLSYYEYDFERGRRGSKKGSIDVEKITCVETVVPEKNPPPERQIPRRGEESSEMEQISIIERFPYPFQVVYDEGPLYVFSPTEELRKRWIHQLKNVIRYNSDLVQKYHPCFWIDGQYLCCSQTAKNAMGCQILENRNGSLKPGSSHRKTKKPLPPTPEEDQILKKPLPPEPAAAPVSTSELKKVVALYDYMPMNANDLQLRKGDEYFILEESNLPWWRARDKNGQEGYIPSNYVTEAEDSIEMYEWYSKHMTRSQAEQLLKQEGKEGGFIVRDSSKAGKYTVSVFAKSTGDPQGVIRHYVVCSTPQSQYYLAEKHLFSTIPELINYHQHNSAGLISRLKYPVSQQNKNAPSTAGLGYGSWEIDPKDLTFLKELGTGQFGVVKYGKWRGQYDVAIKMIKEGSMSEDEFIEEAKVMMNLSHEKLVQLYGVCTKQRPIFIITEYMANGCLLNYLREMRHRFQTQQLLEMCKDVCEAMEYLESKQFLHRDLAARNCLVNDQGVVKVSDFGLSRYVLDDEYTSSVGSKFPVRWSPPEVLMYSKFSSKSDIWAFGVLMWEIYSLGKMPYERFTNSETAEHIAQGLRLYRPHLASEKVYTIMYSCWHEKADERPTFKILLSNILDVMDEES

Compound | EC50 [µM] | EC50 [1] [µM]
CC1(C(=O)N2CC[C@@H](c3nc(-c4ccc(C(=O)Nc5ccccn5)cc4)c4c(N)nccn34)C2)COC1 [Example 126, (R)-4-(8-amino-3-(1-(3-methyloxetane-3-carbonyl)pyrrolidin-3-yl)imidazo[1,5-a]pyrazin-1-yl)-N-(pyridin-2-yl)benzamide, TFA salt] | 0.1 to 1 | –
Nc1nccn2c1c(-c1ccc(C(=O)Nc3cc(C4CC4)ccn3)cc1)nc2[C@H]1CC[C@H](O)CC1 [Example 7, 4-(8-amino-3-((trans)-4-hydroxycyclohexyl)imidazo[1,5-a]pyrazin-1-yl)-N-(4-cyclopropylpyridin-2-yl)benzamide] | – | < 0.01
Nc1nccn2c([C@@H]3CCCN(CCc4ccccc4)C3)nc(-c3ccc(C(=O)Nc4ccccn4)cc3)c12 [Example 134, (R)-4-(8-amino-3-(1-phenethylpiperidin-3-yl)imidazo[1,5-a]pyrazin-1-yl)-N-(pyridin-2-yl)benzamide, TFA salt] | 0.01 to 0.1 | –
Nc1nccn2c1c(-c1ccc(C(=O)Nc3ccccn3)c3ccccc13)nc2[C@H]1CC[C@H](O)CC1 [Example 22, 4-(8-amino-3-((trans)-4-hydroxycyclohexyl)imidazo[1,5-a]pyrazin-1-yl)-N-(pyridin-2-yl)-1-naphthamide] | 0.1 to 1 | –
CC1CCc2nc(NC(=O)c3ccc(-c4nc([C@H]5[C@@H]6COC[C@@H]65)n5ccnc(N)c45)cc3)sc2C1 (stereo partly drawn) [Example 32, 4-(8-amino-3-((1R,5S,6S)-3-oxabicyclo[3.1.0]hexan-6-yl)imidazo[1,5-a]pyrazin-1-yl)-N-(6-methyl-4,5,6,7-tetrahydrobenzo[d]thiazol-2-yl)benzamide, TFA salt] | 0.01 to 0.1 | –

Second part, the molecule after the results:

EC50 [µM] | EC50 [1] [µM] | Compound
– | < 0.01 | CCC(=O)N[C@H]1CCC[C@@H](c2nc(-c3ccc(C(=O)Nc4cc(C(F)(F)F)ccn4)cc3)c3c(N)nccn23)C1 (relative stereo) [Example 161, 4-(8-amino-3-((cis)-3-propionamidocyclohexyl)imidazo[1,5-a]pyrazin-1-yl)-N-(4-(trifluoromethyl)pyridin-2-yl)benzamide]
– | < 0.01 | CC(C)(F)C(=O)N1CCC[C@@H](c2nc(-c3ccc(C(=O)Nc4cc(C(F)(F)F)ccn4)cc3)c3c(N)ncnn23)C1 [Example 257, (R)-4-(4-amino-7-(1-(2-fluoro-2-methylpropanoyl)piperidin-3-yl)imidazo[1,5-f][1,2,4]triazin-5-yl)-N-(4-(trifluoromethyl)pyridin-2-yl)benzamide]
< 0.01 | – | CC(C)(C#N)C(=O)N[C@@H]1CCC[C@@H](c2nc(-c3ccc(C(=O)Nc4cc(C(F)(F)F)ccn4)cc3)c3c(N)nccn23)C1 (relative stereo) [Example 162, 4-(8-amino-3-((trans)-3-(2-cyano-2-methylpropanamido)-cyclohexyl)imidazo[1,5-a]pyrazin-1-yl)-N-(4-(trifluoromethyl)pyridin-2-yl)benzamide]
– | < 0.01 | C[C@H]1CC[C@@H](c2nc(-c3ccc(C(=O)Nc4ccccn4)cc3)c3c(N)nccn23)CN1C(=O)C1CCC1 (relative stereo) [Example 204, 4-(8-amino-3-((cis)-1-(cyclobutanecarbonyl)-6-methylpiperidin-3-yl)imidazo[1,5-a]pyrazin-1-yl)-N-(pyridin-2-yl)benzamide, TFA salt]
0.01 to 0.1 | – | Cc1nc(-c2ccc(C(=O)Nc3cc(C(F)(F)F)ccn3)cc2)c2c(N)ncc(C(O)CC(C)C)n12 (centres unmarked) [Example 323, 4-(8-amino-5-(1-hydroxy-3-methylbutyl)-3-methylimidazo[1,5-a]pyrazin-1-yl)-N-(4-(trifluoromethyl)pyridin-2-yl)benzamide]
0.1 to 1 | – | CCCc1ccnc(NC(=O)c2ccc(-c3nc(C)n4c(C(=O)NCCCOC)cnc(N)c34)cc2)c1 [Example 294, 8-amino-N-(3-methoxypropyl)-3-methyl-1-(4-(4-propylpyridin-2-ylcarbamoyl)phenyl)imidazo[1,5-a]pyrazine-5-carboxamide]
